# Tested on: Sarcoma 180
# Assay: Test 4: Test of Antitumor Effect to Sarcoma 180 by Oral Administration
# Assay type: in vivo, ICR female mice
# Conditions: for D: average diameter of tumor, 2 weeks / D: average diameter of tumor, 4 weeks / D: average diameter of tumor, 6 weeks / D: average diameter of tumor, 8 weeks / D: average diameter of tumor, 10 weeks: 100 mg/kg oral once a day, 10 days; for D: average diameter of tumor, 2 weeks: control 10.6; for D: average diameter of tumor, 4 weeks: control 15.2; for D: average diameter of tumor, 6 weeks: control 22.4; for D: average diameter of tumor, 8 weeks: control 31.5; for D: average diameter of tumor, 10 weeks: control 37.6; for N: number of living mice, 0 weeks / N: number of living mice, 2 weeks / N: number of living mice, 4 weeks / N: number of living mice, 6 weeks / N: number of living mice, 8 weeks / N: number of living mice, 10 weeks: 100 mg/kg oral, of 6 mice; for N: number of living mice, 0 weeks / N: number of living mice, 2 weeks / N: number of living mice, 4 weeks / N: number of living mice, 6 weeks: control 6; for N: number of living mice, 8 weeks: control 5; for N: number of living mice, 10 weeks: control 1
# Procedure: To the control group, a physiological saline solution was similarly administered. The dose of the compound was 100 mg per Kg of the body weight. The diameter D (mm) of the tumor was measured, and the average value and the number N of the living mice were determined to obtain results shown in Table 4.
Structure (SMILES),"D: average diameter of tumor, 2 weeks [mm]","D: average diameter of tumor, 4 weeks [mm]","D: average diameter of tumor, 6 weeks [mm]","D: average diameter of tumor, 8 weeks [mm]","D: average diameter of tumor, 10 weeks [mm]","N: number of living mice, 0 weeks","N: number of living mice, 2 weeks","N: number of living mice, 4 weeks","N: number of living mice, 6 weeks","N: number of living mice, 8 weeks","N: number of living mice, 10 weeks"
CCN(CC)C(=O)N1CCN(c2ccc(Cl)cc2)CC1 [drawing 30],7.1,5.8,3.0,0,0,6,6,6,6,6,6
CCN(CC)C(=O)N1CCN(c2ccc(C(=O)O)cc2)CC1 [drawing 33],6.8,3.5,4.4,2.2,0,6,6,6,6,6,6
CCN(CC)C(=O)N1CCN(c2ccc(OC)cc2)CC1 [drawing 31],8.1,4.6,5.0,2.2,0.6,6,6,6,6,6,6
CCOC(=O)c1ccc(N2CCN(C(=O)N(CC)CC)CC2)cc1 [drawing 32],9.2,7.4,4.8,3.2,0,6,6,6,6,6,6
CCN(CC)C(=O)N1CCN(c2ccccc2)CC1 [drawing 29],7.8,6.6,3.7,0.9,0,6,6,6,6,6,6
CCN(CC)C(=O)N1CCN(c2ccc(C(C)=O)cc2)CC1 [drawing 34],8.4,4.7,5.1,6.6,0,6,6,6,6,6,6

# Reference: US4446133A, “1-Phenyl-4-carbamoyl piperazine compounds, process for preparation thereof and utilizations thereof” (Misuitoatsu Chemicals, Inc., priority 1980, dated 1984)
